Data from US12383567B2, “Use of cannabinoids in the treatment of epilepsy” (Jazz Pharmaceuticals Research UK Limited, priority 2017, dated 2025).

Experiment: Drug-drug interaction between cannabidiol (CBD) and tacrolimus in an epilepsy patient (clinical trial, open label phase)
Type: in vivo, human
Method: The patient was a person with refractory epilepsy receiving the immunosuppressant drug tacrolimus for interstitial nephritis.
The patient had been stable on tacrolimus at a dose of 5 mg twice per day for a year prior to entry into a clinical trial on the use of CBD to treat childhood-onset epilepsy. At the time of entry into the study their blood level of tacrolimus was between 3.9 and 8.4 ng/mL.
The patient was initially randomized to the sesame oil placebo arm of the trial, during this phase there was no change in the levels of tacrolimus or serum creatine.
The dose of tacrolimus was reduced repeatedly while receiving CBD as described in FIG. 1. A dose of 0.5 mg twice per day (a 10-fold reduction) was finally reached.

[1] = during the time the subject was taking CBD with tacrolimus

SMILES: C=C(C)[C@@H]1CCC(C)=C[C@H]1c1c(O)cc(CCCCC)cc1O [CBD, Cannabidiol]
- blood urea nitrogen (BUN) change [1]: significant increase
- serum creatine levels change [1]: significant increase
- tacrolimus toxicity (open label phase, receiving CBD concurrently with tacrolimus): signs of tacrolimus toxicity
